SMILES strings stand for the structures. A value given as a limit tells only on which side of the number the result lay.

21 compounds from patent publication US9365522B2, “Pyrazole amide derivative” (AMGEN INC., priority 2015, dated 2016) can be followed below.

This experiment deals with T1, ligand binding domain of human ROR gamma (Homo sapiens, UniProt P51449).
T1 construct: NM_001001523; expressed in transfected cells; host or cells: HEK293T
T1 sequence (P51449 247-497 isoform P51449-2): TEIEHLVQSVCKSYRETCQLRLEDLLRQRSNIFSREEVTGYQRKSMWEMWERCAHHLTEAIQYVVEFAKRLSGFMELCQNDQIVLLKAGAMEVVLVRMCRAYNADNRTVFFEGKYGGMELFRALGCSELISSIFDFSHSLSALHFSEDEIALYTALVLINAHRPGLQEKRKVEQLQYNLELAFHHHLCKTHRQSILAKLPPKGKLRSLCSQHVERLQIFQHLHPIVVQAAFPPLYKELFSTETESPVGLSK
Briefly: ROR gamma reporter gene assay (GAL4-RORγ LBD luciferase, Dual-Glo). It counts as cell-based. The conditions noted are these: HEK293T cells transfected with pM-ROR gamma, 8 concentrations 3.5 nM to 10.5 μM, 24 h incubation; read-out: result (pIC50, inhibition of RORγ transcriptional activity) (converted). Summed up: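 Inhibition of RORγ-driven transcription was measured in HEK293T cells expressing a GAL4 fusion of the human RORγ LBD (aa 247-497), with renilla luciferase as internal control. Cells in 10% charcoal-stripped serum received compound (3.5 nM–10.5 μM) for 24 h.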
(Reporter assays use an easily measured gene product as a stand-in for the process of interest.)
`C[C@]1(C(=O)O)CC[C@H](n2ncc(C(=O)N(Cc3cc(F)cc(F)c3)C[C@@H](F)c3c(Cl)cccc3Cl)c2C(F)(F)F)CC1` [Example 139, trans-4-(4-(((2S)-2-(2,6-dichlorophenyl)-2-fluoroethyl)-((3,5-difluorophenyl)methyl)carbamoyl)-5-(trifluoromethyl)pyrazol-1-yl)-1-methylcyclohexane-1-carboxylic acid]: the IC50 was 17400 pM.

As for `CC(C)(C)CC1CC(CN(CC(=O)c2c(Cl)cncc2Cl)C(=O)c2cnn([C@H]3CC[C@H](C(=O)O)CC3)c2C(F)(F)F)C1` (stereo partly drawn) [Example 140, trans-4-(4-((2-(3,5-dichloropyridin-4-yl)-2-oxoethyl)-((3-(2,2-dimethylpropyl)cyclobutyl)methyl)carbamoyl)-5-(trifluoromethyl)pyrazol-1-yl)cyclohexane-1-carboxylic acid], the IC50 is 200000 pM.

As to `Nc1ccccc1C(=O)CN(Cc1cc(F)cc(F)c1)C(=O)c1cnn([C@H]2CC[C@H](C(=O)O)CC2)c1C(F)(F)F` [Example 142, trans-4-(4-((2-(2-aminophenyl)-2-oxoethyl)-((3,5-difluorophenyl)methyl)carbamoyl)-5-(trifluoromethyl)pyrazol-1-yl)cyclohexane-1-carboxylic acid], the IC50 is 6.61e+06 pM.

As to `Cc1ccc(N)c(C(=O)CN(Cc2cc(F)cc(F)c2)C(=O)c2cnn([C@H]3CC[C@H](C(=O)O)CC3)c2C(F)(F)F)c1` [Example 143, trans-4-(4-((2-(2-amino-5-methylphenyl)-2-oxoethyl)-((3,5-difluorophenyl)methyl)carbamoyl)-5-(trifluoromethyl)pyrazol-1-yl)cyclohexane-1-carboxylic acid], the IC50 is 2.24e+06 pM.

Take `CC(C)(C)OCCN(CC(=O)c1c(Cl)cc(C(F)(F)F)cc1Cl)C(=O)c1cnn([C@H]2CC[C@H](C(=O)O)CC2)c1C(F)(F)F` [Example 144, trans-4-(4-((2-(2,6-dichloro-4-(trifluoromethyl)phenyl)-2-oxoethyl)-(2-((2-methylpropan-2-yl)oxy)ethyl)carbamoyl)-5-(trifluoromethyl)pyrazol-1-yl)cyclohexane-1-carboxylic acid]: the IC50 was 87100 pM.

Consider `O=C(CN(Cc1cncnc1)C(=O)c1cnn([C@H]2CC[C@H](C(=O)O)CC2)c1C(F)(F)F)c1c(Cl)cccc1Cl` [Example 146, trans-4-(4-((2-(2,6-dichlorophenyl)-2-oxoethyl)-(pyrimidin-5-ylmethyl)carbamoyl)-5-(trifluoromethyl)pyrazol-1-yl)cyclohexane-1-carboxylic acid], for which the IC50 was 148000 pM.

Take `O=C(CN(Cc1ccccc1O)C(=O)c1cnn([C@H]2CC[C@H](C(=O)O)CC2)c1C(F)(F)F)c1c(Cl)cncc1Cl` [Example 147, trans-4-(4-((2-(3,5-dichloropyridin-4-yl)-2-oxoethyl)-((2-hydroxyphenyl)methyl)carbamoyl)-5-(trifluoromethyl)pyrazol-1-yl)cyclohexane-1-carboxylic acid]: the IC50 was 347000 pM.

As to `CC(C)(C)c1c(C(=O)N(CC(=O)c2c(Cl)cncc2Cl)Cc2cc(F)cc(F)c2)cnn1[C@H]1CC[C@H](C(=O)O)CC1` [Example 148, trans-4-(5-tert-butyl-4-((2-(3,5-dichloropyridin-4-yl)-2-oxoethyl)-((3,5-difluorophenyl)methyl)carbamoyl)pyrazol-1-yl)cyclohexane-1-carboxylic acid], the IC50 is 479000 pM.

`CC(C)(C)OCCN(CC(=O)c1c(Cl)cc(C(F)(F)F)cc1Cl)C(=O)c1cnn([C@H]2CC[C@](C)(C(=O)O)CC2)c1C(F)(F)F` [Example 149, trans-4-(4-((2-(2,6-dichloro-4-(trifluoromethyl)phenyl)-2-oxoethyl)-(2-((2-methylpropan-2-yl)oxy)ethyl)carbamoyl)-5-(trifluoromethyl)pyrazol-1-yl)-1-methylcyclohexane-1-carboxylic acid]: the IC50 is 60300 pM.

Consider `O=C(CN(CC1(C(F)(F)F)CC1)C(=O)c1cnn([C@H]2CC[C@H](C(=O)O)CC2)c1C(F)(F)F)c1c(Cl)cncc1Cl` [Example 150, trans-4-(4-((2-(3,5-dichloropyridin-4-yl)-2-oxoethyl)-((1-(trifluoromethyl)cyclopropyl)methyl)carbamoyl)-5-(trifluoromethyl)pyrazol-1-yl)cyclohexane-1-carboxylic acid], for which the IC50 was 53700 pM.

For `O=C(CN(Cc1ccnnc1)C(=O)c1cnn([C@H]2CC[C@H](C(=O)O)CC2)c1C(F)(F)F)c1c(Cl)cccc1Cl` [Example 151, trans-4-(4-((2-(2,6-dichlorophenyl)-2-oxoethyl)-(pyridazin-4-ylmethyl)carbamoyl)-5-(trifluoromethyl)pyrazol-1-yl)cyclohexane-1-carboxylic acid], the IC50 is 8.13e+06 pM.

`O=C(CN(Cc1cc(F)cc(F)c1)C(=O)c1cnn([C@H]2CC[C@H](C(=O)O)CC2)c1C(F)(F)F)c1ncc(C(F)(F)F)cc1Cl` [Example 152, trans-4-(4-((2-(3-chloro-5-(trifluoromethyl)pyridin-2-yl)-2-oxoethyl)-((3,5-difluorophenyl)methyl)carbamoyl)-5-(trifluoromethyl)pyrazol-1-yl)cyclohexane-1-carboxylic acid]: the IC50 was 2.82e+06 pM.

For `O=C(CN(Cc1cccc(O)c1)C(=O)c1cnn([C@H]2CC[C@H](C(=O)O)CC2)c1C(F)(F)F)c1c(Cl)cncc1Cl` [Example 153, trans-4-(4-((2-(3,5-dichloropyridin-4-yl)-2-oxoethyl)-((3-hydroxyphenyl)methyl)carbamoyl)-5-(trifluoromethyl)pyrazol-1-yl)cyclohexane-1-carboxylic acid], the IC50 is 209000 pM.

As for `CN1CCC(CN(CC(=O)c2c(Cl)cncc2Cl)C(=O)c2cnn([C@H]3CC[C@H](C(=O)O)CC3)c2C(F)(F)F)CC1` [Example 154, trans-4-(4-((2-(3,5-dichloropyridin-4-yl)-2-oxoethyl)-((1-methylpiperidin-4-yl)methyl)carbamoyl)-5-(trifluoromethyl)pyrazol-1-yl)cyclohexane-1-carboxylic acid], the IC50 is greater than 1e+07 pM.

Consider `CC(C)(C)O[C@H]1C[C@@H](N(CC(=O)c2c(Cl)cncc2Cl)C(=O)c2cnn([C@H]3CC[C@H](C(=O)O)CC3)c2C(F)(F)F)C1` [Example 155, trans-4-(4-((2-(3,5-dichloropyridin-4-yl)-2-oxoethyl)-(3-((2-methylpropan-2-yl)oxy)cyclobutyl)carbamoyl)-5-(trifluoromethyl)pyrazol-1-yl)cyclohexane-1-carboxylic acid], for which the IC50 is 5.13e+06 pM.

Turning to `CC[C@]1(C(=O)O)CC[C@H](n2ncc(C(=O)N(CC(=O)c3c(Cl)cncc3Cl)Cc3cc(F)cc(F)c3)c2C(F)(F)F)CC1` [Example 156, trans-4-(4-((2-(3,5-dichloropyridin-4-yl)-2-oxoethyl)-((3,5-difluorophenyl)methyl)carbamoyl)-5-(trifluoromethyl)pyrazol-1-yl)-1-ethylcyclohexane-1-carboxylic acid], the IC50 was 1.02e+06 pM.

Turning to `O=C1CC[C@@H](CN(CC(=O)c2c(Cl)cncc2Cl)C(=O)c2cnn([C@H]3CC[C@H](C(=O)O)CC3)c2C(F)(F)F)N1` [Example 157, trans-4-(4-((2-(3,5-dichloropyridin-4-yl)-2-oxoethyl)-(((2S)-5-oxopyrrolidin-2-yl)methyl)carbamoyl)-5-(trifluoromethyl)pyrazol-1-yl)cyclohexane-1-carboxylic acid], the IC50 is greater than 1e+07 pM.

As for `O=C1CC[C@H](CN(CC(=O)c2c(Cl)cncc2Cl)C(=O)c2cnn([C@H]3CC[C@H](C(=O)O)CC3)c2C(F)(F)F)N1` [Example 158, trans-4-(4-((2-(3,5-dichloropyridin-4-yl)-2-oxoethyl)-(((2R)-5-oxopyrrolidin-2-yl)methyl)carbamoyl)-5-(trifluoromethyl)pyrazol-1-yl)cyclohexane-1-carboxylic acid], the IC50 is greater than 1e+07 pM.

Turning to `O=C(CN(Cc1cc(F)cc(F)c1)C(=O)c1cnn([C@H]2CC[C@H](C(=O)O)CC2)c1CO)c1c(Cl)cncc1Cl` [Example 159, trans-4-(4-((2-(3,5-dichloropyridin-4-yl)-2-oxoethyl)-((3,5-difluorophenyl)methyl)carbamoyl)-5-(hydroxymethyl)pyrazol-1-yl)cyclohexane-1-carboxylic acid], the IC50 was greater than 1e+07 pM.

Turning to `CC12CCC(CN(CC(=O)c3c(Cl)cncc3Cl)C(=O)c3cnn([C@H]4CC[C@H](C(=O)O)CC4)c3C(F)(F)F)(CC1)O2` [Example 160, trans-4-(4-((2-(3,5-dichloropyridin-4-yl)-2-oxoethyl)-((1-methyl-7-oxabicyclo[2.2.1]heptan-4-yl)methyl)carbamoyl)-5-(trifluoromethyl)pyrazol-1-yl)cyclohexane-1-carboxylic acid], the IC50 was 24500 pM.

`O=C(CN(C(=O)c1cnn([C@H]2CC[C@H](C(=O)O)CC2)c1C(F)(F)F)[C@H]1C[C@@H]1c1ccccc1)c1c(Cl)cncc1Cl` [Example 161, trans-4-(4-((2-(3,5-dichloropyridin-4-yl)-2-oxoethyl)-((1S,2R)-2-phenylcyclopropyl)carbamoyl)-5-(trifluoromethyl)pyrazol-1-yl)cyclohexane-1-carboxylic acid]: the IC50 is 2.19e+06 pM.
